Each block holds one compound with its values, some of them ahead of it.
Legend:
[1] = target: T1, human kidney TPMT Peak I (Homo sapiens, UniProt P51580); test: Panel of methyltransferase inhibitors and ions, human kidney Peak I TPMT; assay type: biochemical
T1 construct: Human renal tissue contains two isoforms of TPMT, Peak I and Peak II, that can be separated by DEAE ion exchange chromatography; from tissue; host or cells: human kidney, DEAE Peak I, gel filtration
T1 sequence (P51580 1-245): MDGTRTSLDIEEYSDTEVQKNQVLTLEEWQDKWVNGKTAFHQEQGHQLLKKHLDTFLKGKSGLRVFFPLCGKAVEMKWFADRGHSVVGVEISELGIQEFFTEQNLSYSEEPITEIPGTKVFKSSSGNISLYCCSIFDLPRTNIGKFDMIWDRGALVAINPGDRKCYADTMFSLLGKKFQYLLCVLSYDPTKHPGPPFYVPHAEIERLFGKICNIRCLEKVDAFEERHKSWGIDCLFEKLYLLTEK
Source text: Human renal tissue contains two isoforms of TPMT, Peak I and Peak II, that can be separated by DEAE ion exchange chromatography as reported by J. A. Van Loon et al., Biochem. Genet., 20, 637 (1982). The two isoforms were separated by DEAE ion exchange chromatography, and the Peak I enzyme was then purified by gel filtration chromatography performed with Sephadex G-100 superfine as described by J. A. Van Loon et al., cited above. In some experiments, hydroxylapatite chromatography performed as described by J. A. Van Loon et al., in Biochem. Pharmacol., 44, 775 (1992) was added as a third purification step.
(§1) TPMT activity in renal tissue was measured by the method of R. M. Weinshilboum et al., in Clin. Chim. Acta, 85, 323 (1978) as modified by L. C. Woodson et al., Biochem. Pharmacol., 32, 819 (1983) to assay the enzyme in human kidney preparations. […] Ado-Met as the methyl donor. Assay conditions for the measurement of TPMT in T84 human colon carcinoma cells and in COS-1 cells were identical with those used to measure the enzyme activity in human renal tissue. One unit of TPMT activity represented the formation of 1 nmol of 6-MMP per hr of incubation at 37° C.
(§2) Finally, the response of the TPMT expressed in COS-1 cells to a panel of methyltransferase inhibitors and ions was compared with that of TPMT activity in human kidney 100,000×g supernatant, partially purified human kidney Peak I TPMT and T84 cell TPMT (Table 3).

[2] = target: T2, T84 cell TPMT (Homo sapiens, UniProt P51580); test: Panel of methyltransferase inhibitors and ions, T84 cell 100,000×g supernatant; assay type: biochemical
T2 construct: Cytosol from T84 cells did contain TPMT enzymatic activity; host or cells: T84 human colon carcinoma cells
T2 sequence (P51580 1-245): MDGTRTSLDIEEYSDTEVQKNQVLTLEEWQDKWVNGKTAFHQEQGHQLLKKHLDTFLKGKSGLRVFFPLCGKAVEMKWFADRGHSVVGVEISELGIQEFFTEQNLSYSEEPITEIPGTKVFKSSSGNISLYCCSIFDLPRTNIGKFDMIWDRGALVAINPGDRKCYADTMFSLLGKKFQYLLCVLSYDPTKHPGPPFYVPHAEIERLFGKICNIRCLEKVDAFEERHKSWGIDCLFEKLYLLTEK
Method: as §1
T84 human colon carcinoma cells (American Type Culture Collection, Rockville, Md.) were grown to confluence in an equal volume mixture of Dulbecco's modified Eagle's medium (DMEM) and Ham's F12 media with 5% fetal calf serum. The cells were then harvested, cell pellets were washed in phosphate buffered saline (PBS), and the pellets were homogenized for 30 sec in 1 ml of 5 mM potassium phosphate buffer, pH 7.5, with a Polytron homogenizer. Homogenates of the cells were centrifuged at 100,000×g for 1 hr at 4° C., and the supernatant was used to assay TPMT activity and to determine selected biochemical properties of the enzyme.
as §2

[3] = target: T3, TPMT (Homo sapiens, UniProt P51580); test: Inhibition of TPMT, all sources of enzyme (summary in words); assay type: biochemical
T3 construct: T84 cDNA transiently expressed in COS-1 cells, plus native human kidney 100,000×g supernatant, partially purified kidney Peak I and T84 cell enzyme
T3 sequence (P51580 1-245): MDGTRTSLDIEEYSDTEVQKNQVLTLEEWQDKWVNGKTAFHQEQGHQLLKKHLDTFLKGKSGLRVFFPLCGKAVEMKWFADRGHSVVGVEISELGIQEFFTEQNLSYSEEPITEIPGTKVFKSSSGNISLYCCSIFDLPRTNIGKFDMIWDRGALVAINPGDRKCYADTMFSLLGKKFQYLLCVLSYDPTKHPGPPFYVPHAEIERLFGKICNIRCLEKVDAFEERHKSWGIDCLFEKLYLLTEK
Source text: as §2
As shown by the data in Table 3, the results were nearly identical for all sources of enzyme and each activity was inhibited by the TPMT reaction products, Ado-Hcy and 6-MMP. However, the enzyme was not affected by inhibitors of other methyltransferase enzymes.

[4] = target: T4, TPMT, human kidney 100,000×g supernatant (Homo sapiens, UniProt P51580); test: Panel of methyltransferase inhibitors and ions, human kidney 100,000×g supernatant; assay type: biochemical
T4 construct: renal tissue was homogenized in 5 mM potassium phosphate buffer, pH 7.5, with a Polytron homogenizer, and a 100,000×g supernatant was prepared; from tissue; host or cells: human kidney (renal tissue)
T4 sequence (P51580 1-245): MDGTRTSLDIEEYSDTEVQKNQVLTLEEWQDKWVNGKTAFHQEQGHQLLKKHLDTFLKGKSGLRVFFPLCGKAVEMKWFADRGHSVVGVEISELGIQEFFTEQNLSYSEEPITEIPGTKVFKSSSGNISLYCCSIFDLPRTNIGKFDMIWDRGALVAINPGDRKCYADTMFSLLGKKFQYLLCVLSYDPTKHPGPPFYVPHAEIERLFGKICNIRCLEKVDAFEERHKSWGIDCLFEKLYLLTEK
Method: Renal tissue was obtained either during autopsy or from patients undergoing clinically indicated nephrectomies. Hepatic tissue was obtained from patients who underwent clinically indicated partial hepatectomies for the removal of primary or metastatic hepatic tumors. All tissue was obtained under guidelines approved by the Mayo Clinic Institutional Review Board. Macroscopically normal tissue was stored at -80° C., conditions under which TPMT activity is stable (C. L. Szumlanski et al., Pharmacogenetics, 2, 148 (1992); J. A. Van Loon et al., Drug Met. Disposit., 18, 632 (1990)). Prior to enzyme purification, renal tissue was homogenized in 5 mM potassium phosphate buffer, pH 7.5, with a Polytron homogenizer, and a 100,000×g supernatant was prepared as described by L. C. Woodson et al., Biochem. Pharmacol., 32, 819 (1983). Amino acid sequence information was obtained with TPMT purified from human renal tissue--a tissue with a high specific activity for the enzyme.
as §1, §2

[5] = target: T5, TPMT expressed in COS-1 cells transfected with T84 TPMT cDNA (Homo sapiens, UniProt P51580); test: Panel of methyltransferase inhibitors and ions, COS-1 cells transfected with T84 TPMT cDNA; assay type: biochemical
T5 construct: digested with SstI to excise the coding region, the 5'-untranslated region and a portion (ca. 600 nucleotides) of the 3'-untranslated region; expressed in transfected cells; host or cells: COS-1 (simian), vector P91023(B)
T5 sequence (P51580 1-245): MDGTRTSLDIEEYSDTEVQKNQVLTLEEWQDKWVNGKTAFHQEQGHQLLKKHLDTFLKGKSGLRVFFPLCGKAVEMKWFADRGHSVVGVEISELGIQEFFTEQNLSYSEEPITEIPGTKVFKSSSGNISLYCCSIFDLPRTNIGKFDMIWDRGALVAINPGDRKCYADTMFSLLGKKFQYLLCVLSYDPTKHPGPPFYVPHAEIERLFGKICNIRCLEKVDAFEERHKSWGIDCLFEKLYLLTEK
Method: TPMT activity in renal tissue was measured by the method of R. M. Weinshilboum et al., in Clin. Chim. Acta, 85, 323 (1978) as modified by L. C. Woodson et al., Biochem. Pharmacol., 32, 819 (1983) to assay the enzyme in human kidney preparations. […] Assay conditions for the measurement of TPMT in T84 human colon carcinoma cells and in COS-1 cells were identical with those used to measure the enzyme activity in human renal tissue. One unit of TPMT activity represented the formation of 1 nmol of 6-MMP per hr of incubation at 37° C.
Simian COS-1 cells were then plated in 100-mm dishes at a density of 1.5-1.8×10^6 cells/dish in DMEM with 10% fetal calf serum, and were allowed to grow overnight. Three dishes of cells were used for each transfection. Purified "sense" plasmid vector (0.5 μg) was mixed with DEAE-dextran and DMEM, and the mixture was added to the cell culture dishes, following the procedures of J. H. McCutchan et al., J. Natl. Cancer Inst., 41, 351 (1988) and R. J. Kaufman et al., Mol. Cell. Biol., 9, 946 (1989). Control cells were treated with no DNA, with expression vector alone, or with constructs that contained the cDNA clone in an antisense orientation. After 1 hr, the DNA-DEAE-dextran solution was replaced for 2 min with DMEM that contained 10% dimethylsulfoxide, followed by incubation for 2 hr in 0.1 mM chloroquine in DMEM following the procedure of H. Luthman et al., Nucl. Acids Res., 11, 1295 (1983). Cells were then grown for 40-42 hr in DMEM with 10% fetal calf serum. The cells from each transfection were harvested and pooled, cell pellets were washed in 5 ml of PBS, and the cell pellets were homogenized for 30 sec in 2 ml of 5 mM potassium phosphate buffer, pH 7.5. Homogenates were centrifuged at 15,000×g for 15 min at 4° C., supernatants from that step were centrifuged at 100,000×g for 1 hr at 4° C., and 0.25 μl aliquots of 100,000×g supernatant preparations were then assayed for transient expression of TPMT enzymatic activity.

[6] = target: T6, human kidney TPMT (Homo sapiens, UniProt P51580); conditions: read-out: Apparent Km value for Ado-Met; cited from earlier work
T6 construct: to assay the enzyme in human kidney preparations; host or cells: human kidney
T6 sequence (P51580 1-245): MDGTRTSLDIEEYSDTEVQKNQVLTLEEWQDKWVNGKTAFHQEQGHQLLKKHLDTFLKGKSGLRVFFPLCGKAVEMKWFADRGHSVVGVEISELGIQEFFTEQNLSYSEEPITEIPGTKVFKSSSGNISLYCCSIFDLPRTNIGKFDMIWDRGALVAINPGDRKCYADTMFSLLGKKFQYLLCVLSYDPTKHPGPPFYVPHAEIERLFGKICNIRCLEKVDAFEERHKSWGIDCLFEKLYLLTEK

[7] = system: histamine N-methyltransferase (HNMT); conditions: cited from earlier work
[8] = read-out: Activity Remaining, %

remaining activity at 5000 µM ([1]; human kidney TPMT Peak I, 5 mM): 30% | remaining activity at 5000 µM ([2]; T84 cell 100,000×g supernatant, 5 mM): 27% | effect on TPMT activity (in words) [3]: inhibited | remaining activity at 5000 µM ([4]; human kidney 100,000×g supernatant, 5 mM): 26% | remaining activity at 5000 µM ([5]; COS-1 cells transfected with T84 TPMT cDNA, 5 mM): 29%
SMILES: CSc1ncnc2nc[nH]c12 [6-MMP, 6-methylmercaptopurine]

SMILES: Nc1ncnc2c1ncn2[C@@H]1O[C@H](CSCC[C@H](N)C(=O)O)[C@@H](O)[C@H]1O [Ado-Hcy, S-adenosyl-L-homocysteine]
remaining activity at 100 µM [1, 8]: 5% | remaining activity at 100 µM [2, 8]: 5% | effect on TPMT activity (in words) [3]: inhibited | remaining activity at 100 µM [4, 8]: 5% | remaining activity at 100 µM [5, 8]: 5%

SMILES: C[S+](CC[C@H](N)C(=O)O)C[C@H]1O[C@@H](n2cnc3c(N)ncnc32)[C@H](O)[C@@H]1O (stereo partly drawn) [Ado-Met, S-adenosyl-L-methionine]
Km [6]: 2700 nM

remaining activity at 1000 µM ([1]; human kidney TPMT Peak I, 1 mM, read-out: Activity Remaining, %): 90% | remaining activity at 1000 µM ([2]; T84 cell 100,000×g supernatant, 1 mM, read-out: Activity Remaining, %): 96% | effect on TPMT activity (in words) [3]: not affected | remaining activity at 1000 µM ([4]; human kidney 100,000×g supernatant, 1 mM, read-out: Activity Remaining, %): 97% | remaining activity at 1000 µM ([5]; COS-1 cells transfected with T84 TPMT cDNA, 1 mM, read-out: Activity Remaining, %): 95%
SMILES: CCN(CC)Cc1cc(Nc2ccnc3cc(Cl)ccc23)ccc1O [Amodiaquine]
inhibition of histamine N-methyltransferase (in words) [7]: an inhibitor of histamine N-methyltransferase
